Measurements reported in patent publication US20110039721A1, “METHOD FOR PREDICTION ABOUT CARCINOGENICITY OF SUBSTANCE IN RODENT” (Chemicals Evaluation and Research Institute, priority 2007, published 2011).

Tests used:
[1] = tested on: mRNA expressed from the genes (A) to (D) in rat liver; test: Behavior of genes (mRNA expression level, oligo-DNA microarray) in rat liver after 28-day oral administration; assay type: in vivo; settings: mRNA vs vehicle control group
Procedure, shortened: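 Male F344 SPF rats, 5 weeks old, four per group, received carcinogens, non-carcinogens or solvent vehicle by oral gavage once daily for 28 days. Liver total RNA was then extracted. Changes of ≥1.5-fold or ≤1/1.5 versus vehicle control, in a consistent direction across carcinogens, counted as significant.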

[2] = classification of the substance (M+/M−); cited from earlier work
[3] = tested on: liver; settings: classification of the substance (Cr+/Cr−); cited from earlier work
[4] = tested on: rodent; settings: classification of the substance (C+/C−); cited from earlier work
[5] = gene group (A), Unigene No. Rn.167075
[6] = gene group (C), Unigene No. Rn.120914

With O=C(O)C(Cl)(Cl)Cl [TS051, Trichloroacetic acid] the “Behavior of gene caused by administration of chemical substance, Gene No. 4846” value ([1]; gene group (A), Unigene No. Rn.144554) was “−”, the “Behavior of gene caused by administration of chemical substance, Gene No. 2026” value [1, 5] was “−” and the “Behavior of gene caused by administration of chemical substance, Gene No. 4218” value [1, 5] was “−”. For the same compound, the “Behavior of gene caused by administration of chemical substance, Gene No. 6182” value ([1]; gene group (A), Unigene No. Rn.5834) was “−”, the “Behavior of gene caused by administration of chemical substance, Gene No. 5600” value ([1]; gene group (A), Unigene No. Rn.9836) was “−” and the “Behavior of gene caused by administration of chemical substance, Gene No. 1494” value ([1]; gene group (B), Unigene No. Rn.1430) was “−”. The “Behavior of gene caused by administration of chemical substance, Gene No. 2045” value ([1]; gene group (B), Unigene No. Rn.19329) was “−”, the “Behavior of gene caused by administration of chemical substance, Gene No. 2203” value ([1]; gene group (B), Unigene No. Rn.21240) was “−” and the “Behavior of gene caused by administration of chemical substance, Gene No. 533” value ([1]; gene group (C), Unigene No. Rn.106184) was “−”. For the same compound, the “Behavior of gene caused by administration of chemical substance, Gene No. 725” value ([1]; gene group (C), Unigene No. Rn.108075) was “+”, the “Behavior of gene caused by administration of chemical substance, Gene No. 1163” value ([1]; gene group (C), Unigene No. Rn.11766) was “−” and the “Behavior of gene caused by administration of chemical substance, Gene No. 4973” value ([1]; gene group (C), Unigene No. Rn.118529) was “+”. The “Behavior of gene caused by administration of chemical substance, Gene No. 4095” value ([1]; gene group (C), Unigene No. Rn.119024) was “+”, the “Behavior of gene caused by administration of chemical substance, Gene No. 1334” value [1, 6] was “−” and the “Behavior of gene caused by administration of chemical substance, Gene No. 6620” value [1, 6] was “−”. For the same compound, the “Behavior of gene caused by administration of chemical substance, Gene No. 6303” value ([1]; gene group (C), Unigene No. Rn.123063) was “−”, the “Behavior of gene caused by administration of chemical substance, Gene No. 5878” value ([1]; gene group (C), Unigene No. Rn.143213) was “−” and the “Behavior of gene caused by administration of chemical substance, Gene No. 1131” value ([1]; gene group (C), Unigene No. Rn.144946) was “−”. For the same compound, the “Behavior of gene caused by administration of chemical substance, Gene No. 1562” value ([1]; gene group (C), Unigene No. Rn.14744) was “−”, the “Behavior of gene caused by administration of chemical substance, Gene No. 1741” value ([1]; gene group (C), Unigene No. Rn.1647) was “−” and the “Behavior of gene caused by administration of chemical substance, Gene No. 893” value ([1]; gene group (C), Unigene No. Rn.164817) was “−”. The “Behavior of gene caused by administration of chemical substance, Gene No. 6026” value ([1]; gene group (C), Unigene No. Rn.167685) was “−”, the “Behavior of gene caused by administration of chemical substance, Gene No. 154” value ([1]; gene group (C), Unigene No. Rn.185941) was “−” and the “Behavior of gene caused by administration of chemical substance, Gene No. 1993” value ([1]; gene group (C), Unigene No. Rn.18728) was “−”. The “Behavior of gene caused by administration of chemical substance, Gene No. 813” value ([1]; gene group (C), Unigene No. Rn.201760) was “−”, the “Behavior of gene caused by administration of chemical substance, Gene No. 2494” value ([1]; gene group (C), Unigene No. Rn.23969) was “−” and the “Behavior of gene caused by administration of chemical substance, Gene No. 2546” value ([1]; gene group (C), Unigene No. Rn.24561) was “−”. The “Behavior of gene caused by administration of chemical substance, Gene No. 3776” value ([1]; gene group (C), Unigene No. Rn.43232) was “−”, the “Behavior of gene caused by administration of chemical substance, Gene No. 3929” value ([1]; gene group (C), Unigene No. Rn.4620) was “−” and the “Behavior of gene caused by administration of chemical substance, Gene No. 1119” value ([1]; gene group (C), Unigene No. Rn.9757) was “−”. The “Behavior of gene caused by administration of chemical substance, Gene No. 6742” value ([1]; gene group (C), Unigene No. Rn.9779) was “−”, the “Behavior of gene caused by administration of chemical substance, Gene No. 5634” value ([1]; gene group (C), Unigene No. Rn.9862) was “−” and the “Behavior of gene caused by administration of chemical substance, Gene No. 5726” value ([1]; gene group (D), Unigene No. Rn.9939) was “+”. The “Mutagenicity by Ames test” value [2] was “M−”, the Liver carcinogenicity [3] was “Cr−” and the Carcinogenicity [4] was “C+”.
